US8629148B2, “Substituted oxindole-derivatives and the use thereof for the treatment of vasopressin-dependent illnesses” (AbbVie Deutschland GmbH & Co. KG, priority 2007, dated 2014)

Tests used:
[1] = target: human vasopressin V1a receptor (Homo sapiens, UniProt P37288); test: Vasopressin V1a receptor binding assay (125I-AVP displacement, CHO-K1 membranes); settings: selectivity quotient, human V1a vs human V1b
[2] = target: T1, recombinant human oxytocin receptors (Homo sapiens, UniProt P30559); test: Oxytocin receptor binding assay (3H-oxytocin, HEK-293 cells); settings: selectivity quotient, human OT vs human V1b
T1 construct: expressed in transfected cells; host or cells: HEK-293, transient expression; lysed and homogenized cells
T1 sequence (P30559 1-389): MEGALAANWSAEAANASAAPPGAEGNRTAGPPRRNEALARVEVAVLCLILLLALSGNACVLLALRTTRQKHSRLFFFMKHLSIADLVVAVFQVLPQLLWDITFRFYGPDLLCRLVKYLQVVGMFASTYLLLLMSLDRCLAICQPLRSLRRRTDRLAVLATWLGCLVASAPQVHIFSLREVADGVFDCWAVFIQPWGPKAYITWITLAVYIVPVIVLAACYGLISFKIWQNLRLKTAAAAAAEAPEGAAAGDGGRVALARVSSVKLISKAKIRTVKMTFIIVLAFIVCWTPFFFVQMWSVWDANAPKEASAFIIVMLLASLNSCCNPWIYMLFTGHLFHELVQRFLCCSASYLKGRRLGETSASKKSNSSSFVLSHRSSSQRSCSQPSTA
Procedure: The residue was taken up in ice-cold lysis buffer (50 mM Tris-HCl, 10% glycerol, pH 7.4 and Roche complete protease inhibitor) and subjected to an osmotic shock at 4° C. for 20 minutes. The lyzed cells were then centrifuged at 750×g at 4° C. for 20 minutes, the residue was taken up in incubation buffer, and aliquots of 10^7 cells/ml were prepared. The aliquots were frozen at −80° C. until used.
On the day of the experiment, the cells were thawed, diluted with incubation buffer and homogenized using a Multipette Combitip (Eppendorf, Hamburg). […] Triplicate determinations were set up. Bound and free radioligand were separated by filtration under vacuum with Whatman GF/B glass fiber filters with the aid of a Skatron cell harvester 7000. The bound radioactivity was determined by liquid scintillation measurement in a Tricarb Beta counter, model 2000 or 2200CA (Packard).

[3] = target: T2, human vasopressin V1b receptor (Homo sapiens, UniProt P47901); test: Vasopressin V1b receptor binding assay (3H-AVP displacement, CHO-K1 membranes)
T2 construct: expressed in transfected cells; host or cells: CHO-K1 (cell line hV1b_3H2_CHO), membranes
T2 sequence (P47901 1-424): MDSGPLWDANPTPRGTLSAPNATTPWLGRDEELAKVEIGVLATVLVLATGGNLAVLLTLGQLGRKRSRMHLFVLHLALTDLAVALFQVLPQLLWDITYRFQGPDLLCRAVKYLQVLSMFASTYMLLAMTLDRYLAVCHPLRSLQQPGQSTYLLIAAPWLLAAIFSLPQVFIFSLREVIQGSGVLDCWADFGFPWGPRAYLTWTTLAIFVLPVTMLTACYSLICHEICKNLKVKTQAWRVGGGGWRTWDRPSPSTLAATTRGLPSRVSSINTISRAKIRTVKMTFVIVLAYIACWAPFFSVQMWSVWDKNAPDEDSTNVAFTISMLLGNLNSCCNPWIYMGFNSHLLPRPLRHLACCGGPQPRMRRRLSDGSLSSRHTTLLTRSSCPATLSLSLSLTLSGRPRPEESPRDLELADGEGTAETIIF
Procedure: 1. Vasopressin V1b Receptor Binding Assay:
The substance concentration was further diluted 1:5 in the assay mixture (2% DMSO in the mixture).
All determinations were carried out as triplicate determinations.

Sequence of human vasopressin V1a receptor (P37288 whole entry): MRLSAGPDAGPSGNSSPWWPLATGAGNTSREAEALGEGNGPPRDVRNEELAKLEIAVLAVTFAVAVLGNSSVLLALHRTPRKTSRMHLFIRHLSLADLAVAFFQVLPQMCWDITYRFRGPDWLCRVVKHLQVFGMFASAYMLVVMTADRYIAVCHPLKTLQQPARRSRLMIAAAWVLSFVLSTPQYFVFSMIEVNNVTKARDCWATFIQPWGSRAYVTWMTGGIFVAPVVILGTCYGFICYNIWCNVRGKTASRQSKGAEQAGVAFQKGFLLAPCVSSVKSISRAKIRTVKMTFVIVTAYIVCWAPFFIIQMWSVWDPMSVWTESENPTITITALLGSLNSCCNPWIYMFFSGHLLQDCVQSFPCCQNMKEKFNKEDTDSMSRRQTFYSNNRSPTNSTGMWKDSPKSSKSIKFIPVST

Ki(h-V1a)/Ki(h-V1b)* [1] | Ki(h-OT)/Ki(h-V1b)* [2] | Ki [3] [nM] | Structure (SMILES)
+++ (>75) | + (10-<25) | 1 to 10 | CCOc1ncccc1C1(NCc2cccc(N3CCN(C)CC3)c2)C(=O)N(S(=O)(=O)c2ccc(OC)cc2)c2ccc(C#N)cc21 (stereo not drawn) [Example 43, 3-(2-Ethoxypyridin-3-yl)-1-(4-methoxyphenylsulfonyl)-3-[3-(4-methylpiperazin-1-yl)-benzylamino]-2-oxo-2,3-dihydro-1H-indole-5-carbonitrile]
+++ (>75) | +++ (>75) | < 1 | CCOc1ncccc1C1(NCc2ccc(N3CCN(CC)CC3)cc2)C(=O)N(S(=O)(=O)c2ccc(OC)cc2)c2ccc(C#N)cc21 (stereo not drawn) [Example 31, 3-(2-Ethoxypyridin-3-yl)-3-[4-(4-ethylpiperazin-1-yl)benzylamino]-1-(4-methoxy-phenylsulfonyl)-2-oxo-2,3-dihydro-1H-indole-5-carbonitrile]
++ (25-75) | ++ (25-75) | 1 to 10 | COc1ccc(S(=O)(=O)N2C(=O)C(NCc3ccc(N4CCN(C)CC4)cc3)(c3cccnc3OCC(F)(F)F)c3cc(C#N)ccc32)cc1 (stereo not drawn) [Example 77, 1-(4-Methoxyphenylsulfonyl)-3-(2-(2,2,2-trifluoroethoxy)pyridin-3-yl)-3-[4-(4-methylpiperazin-1-yl)benzylamino]-2-oxo-2,3-dihydro-1H-indole-5-carbonitrile]
+ (10-<25) | ++ (25-75) | 10 to 100 | CCOc1ncccc1C1(NCc2ccc(N3CCN(C)CC3)cc2)C(=O)N(S(=O)(=O)c2ccc(OC)cc2)c2cc(Cl)c(F)cc21 (stereo not drawn) [Example 13, 6-Chloro-3-(2-ethoxypyridin-3-yl)-5-fluoro-1-(4-methoxyphenylsulfonyl)-3-[4-(4-methylpiperazin-1-yl)benzylamino]-1,3-dihydroindol-2-one]
+ (10-<25) | ++ (25-75) | 1 to 10 | CCOc1ncccc1C1(NCc2ccc(N3CCN(C)CC3)cc2)C(=O)N(S(=O)(=O)c2ccc(OC)cc2)c2cc(F)c(F)cc21 (stereo not drawn) [Example 14, 5,6-Difluoro-3-(2-ethoxypyridin-3-yl)-1-(4-methoxyphenylsulfonyl)-3-[4-(4-methylpiperazin-1-yl)benzylamino]-1,3-dihydroindol-2-one]
++ (25-75) | + (10-<25) | 1 to 10 | CCOc1ncccc1C1(NCc2ccc(N3CCNCC3)cc2)C(=O)N(S(=O)(=O)c2ccc(OC)cc2OC)c2ccc(C#N)cc21 (stereo not drawn) [Example 29, 1-(2,4-Dimethoxyphenylsulfonyl)-3-(2-ethoxypyridin-3-yl)-2-oxo-3-(4-piperazin-1-yl-benzylamino)-2,3-dihydro-1H-indole-5-carbonitrile]
+++ (>75) | +++ (>75) | 1 to 10 | CCOc1ncccc1C1(NCc2ccc(N3CCN(C)CC3)cc2)C(=O)N(S(=O)(=O)c2ccc(OC)cc2)c2ccc(C#N)cc21 (stereo not drawn) [Example 16, 3-(2-Ethoxypyridin-3-yl)-1-(4-methoxyphenylsulfonyl)-3-[4-(4-methylpiperazin-1-yl)-benzylamino]-2-oxo-2,3-dihydro-1H-indole-5-carbonitrile]
+ (10-<25) | +++ (>75) | 10 to 100 | CCOc1ncccc1C1(NCc2ccc(N3CCN(C)CC3)cc2)C(=O)N(S(=O)(=O)c2ccccc2)c2ccc(C#N)cc21 (stereo not drawn) [Example 27, 1-Phenylsulfonyl-3-(2-ethoxypyridin-3-yl)-3-[4-(4-methylpiperazin-1-yl)benzylamino]-2-oxo-2,3-dihydro-1H-indole-5-carbonitrile]
++ (25-75) | ++ (25-75) | 1 to 10 | CCOc1ncccc1C1(Nc2cccc(N3CCN(C)CC3)c2)C(=O)N(S(=O)(=O)c2ccc(OC)cc2OC)c2ccc(I)cc21 (stereo not drawn) [Example 60, 1-(2,4-Dimethoxyphenylsulfonyl)-3-(2-ethoxypyridin-3-yl)-5-iodo-3-[3-(4-methylpiperazin-1-yl)phenylamino]-1,3-dihydroindol-2-one]
+++ (>75) | + (10-<25) | 1 to 10 | CCOc1ncccc1C1(NCc2ccc(N3CCN(C)CC3)cc2)C(=O)N(S(=O)(=O)c2ccccc2OC)c2ccc(C#N)cc21 (stereo not drawn) [Example 24, 3-(2-Ethoxypyridin-3-yl)-1-(2-methoxyphenylsulfonyl)-3-[4-(4-methylpiperazin-1-yl)-benzylamino]-2-oxo-2,3-dihydro-1H-indole-5-carbonitrile]
++ (25-75) | +++ (>75) | 1 to 10 | CCOc1ncccc1C1(NCc2ccc(N3CCN(C)CC3)cc2)C(=O)N(S(=O)(=O)c2ccc(OC)cc2)c2ccc(F)cc21 (stereo not drawn) [Example 15, 3-(2-Ethoxypyridin-3-yl)-5-fluoro-1-(4-methoxyphenylsulfonyl)-3-[4-(4-methylpiperazin-1-yl)benzylamino]-1,3-dihydroindol-2-one]
+++ (>75) | ++ (25-75) | 10 to 100 | CCOc1ncccc1C1(Nc2ccc(C(=O)N3CCN(C)CC3)cc2)C(=O)N(S(=O)(=O)c2ccc(OC)cc2OC)c2ccc(C#N)cc21 (stereo not drawn) [Example 73, 1-(2,4-Dimethoxyphenylsulfonyl)-3-(2-ethoxypyridin-3-yl)-3-[4-(4-methylpiperazin-1-carbonyl)phenylamino]-2-oxo-2,3-dihydro-1H-indole-5-carbonitrile]
++ (25-75) | + (10-<25) | 10 to 100 | CCOc1ncccc1C1(NCc2ccc(N3CCN(C)CC3)cc2)C(=O)N(S(=O)(=O)c2cccc(OC)c2)c2ccc(C#N)cc21 (stereo not drawn) [Example 25, 3-(2-Ethoxypyridin-3-yl)-1-(3-methoxyphenylsulfonyl)-3-[4-(4-methylpiperazin-1-yl)-benzylamino]-2-oxo-2,3-dihydro-1H-indole-5-carbonitrile]
+ (10-<25) | +++ (>75) | 1 to 10 | CCOc1ncccc1C1(Nc2ccc(N3CCN(C)CC3)cc2)C(=O)N(S(=O)(=O)c2ccc(OC)cc2)c2ccc(I)cc21 (stereo not drawn) [Example 50, 3-(2-Ethoxypyridin-3-yl)-5-iodo-1-(4-methoxyphenylsulfonyl)-3-[4-(4-methylpiperazin-1-yl)-phenylamino]-1,3-dihydroindol-2-one]
+ (10-<25) | +++ (>75) | 10 to 100 | CCOc1ncccc1C1(NCc2ccc(N3CCN(C)CC3)cc2)C(=O)N(S(=O)(=O)c2ccc(C#N)cc2)c2ccc(C#N)cc21 (stereo not drawn) [Example 28, 1-(4-Cyanophenylsulfonyl)-3-(2-ethoxypyridin-3-yl)-3-[4-(4-methylpiperazin-1-yl)-benzylamino]-2-oxo-2,3-dihydro-1H-indole-5-carbonitrile]
+++ (>75) | + (10-<25) | 1 to 10 | CCOc1ncccc1C1(OC(=O)c2ccc(N3CCN(C)CC3)cc2)C(=O)N(S(=O)(=O)c2ccc(OC)cc2OC)c2ccc(C#N)cc21 (stereo not drawn) [Example 3, 5-Cyano-1-(2,4-dimethoxyphenylsulfonyl)-3-(2-ethoxypyridin-3-yl)-2-oxo-2,3-dihydro-1H-indol-3-yl 4-(4-methylpiperazin-1-yl)benzoate]
++ (25-75) | +++ (>75) | 1 to 10 | CCOc1ccccc1C1(NCc2ccc(N3CCN(C)CC3)cc2)C(=O)N(S(=O)(=O)c2ccc(OC)cc2)c2ccc(C#N)cc21 (stereo not drawn) [Example 37, 3-(2-Ethoxyphenyl)-1-(4-methoxyphenylsulfonyl)-3-[4-(4-methylpiperazin-1-yl)-benzylamino]-2-oxo-2,3-dihydro-1H-indole-5-carbonitrile]
